Test results reported in the supplement of paper PMC10307832.

What was measured:
Test in all cases: relative viability (nuclei count vs DMSO), 5 days (fraction); higher = more cells survive
A-427 = test system: A-427
Procedure, shortened: (§1)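 Nuclei were stained with Hoechst during a one-step fixation (final 0.05% Triton X-100, 1% formaldehyde, 1 ug/ml Hoechst) carried out 5 days after dosing, then counted on 4× images. The cells, lung cancer lines in 1536-well plates, had been dosed by pin tool the day after seeding with one drug alone or a fixed anchor-drug dose plus five library-drug doses (not always all listed) in √10 steps. Relative viability is the nuclei count in treated wells divided by that in vehicle wells, and each value is the median of duplicate plates.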

ABC-1 = test system: ABC-1
Procedure, shortened: as §1

COR-L23 = test system: COR-L23
Procedure, shortened: as §1

EMC-BAC-2 = test system: EMC-BAC-2
Procedure, shortened: as §1

HARA = test system: HARA
Procedure, shortened: as §1

HOP-62 = test system: HOP-62
Procedure, shortened: as §1

LK-2 = test system: LK-2
Procedure, shortened: as §1

LXF-289 = test system: LXF-289
Procedure, shortened: as §1

NCI-H1792 = test system: NCI-H1792
Procedure, shortened: as §1

NCI-H1793 = test system: NCI-H1793
Procedure, shortened: as §1

NCI-H1944 = test system: NCI-H1944
Procedure, shortened: as §1

NCI-H1993 = test system: NCI-H1993
Procedure, shortened: as §1

NCI-H2009 = test system: NCI-H2009
Procedure, shortened: as §1

NCI-H2170 = test system: NCI-H2170
Procedure, shortened: as §1

NCI-H2228 = test system: NCI-H2228
Procedure, shortened: as §1

NCI-H3122 = test system: NCI-H3122
Procedure, shortened: as §1

NCI-H596 = test system: NCI-H596
Procedure, shortened: as §1

NCI-H727 = test system: NCI-H727
Procedure, shortened: as §1

PC-3 [JPC-3] = test system: PC-3 [JPC-3]
Procedure, shortened: as §1

SK-LU-1 = test system: SK-LU-1
Procedure, shortened: as §1

SK-MES-1 = test system: SK-MES-1
Procedure, shortened: as §1

SW 1573 = test system: SW 1573
Procedure, shortened: as §1

SW 900 = test system: SW 900
Procedure, shortened: as §1

## CC1(C)CCC(c2ccc(Cl)cc2)=C(CN2CCN(c3ccc(C(=O)NS(=O)(=O)c4ccc(N[C@H](CCN5CCOCC5)CSc5ccccc5)c(S(=O)(=O)C(F)(F)F)c4)cc3)CC2)C1 [Navitoclax] + O=C(c1cc(Cc2n[nH]c(=O)c3ccccc23)ccc1F)N1CCN(C(=O)C2CC2)CC1 [Olaparib] (partner 8 µM)
A-427; first compound 0.005 µM
  relative viability: 0.71
A-427; first compound 0.01581 µM
  relative viability: 0.682
A-427; first compound 0.05 µM
  relative viability: 0.782
A-427; first compound 0.1581 µM
  relative viability: 0.808
A-427; first compound 0.5 µM
  relative viability: 0.737
ABC-1; first compound 0.005 µM
  relative viability: 0.909
ABC-1; first compound 0.01581 µM
  relative viability: 0.783
ABC-1; first compound 0.05 µM
  relative viability: 0.838
ABC-1; first compound 0.1581 µM
  relative viability: 0.859
ABC-1; first compound 0.5 µM
  relative viability: 0.776
COR-L23; first compound 0.005 µM
  relative viability: 0.374
COR-L23; first compound 0.01581 µM
  relative viability: 0.405
COR-L23; first compound 0.05 µM
  relative viability: 0.375
COR-L23; first compound 0.1581 µM
  relative viability: 0.367
COR-L23; first compound 0.5 µM
  relative viability: 0.398
EMC-BAC-2; first compound 0.005 µM
  relative viability: 0.461
EMC-BAC-2; first compound 0.01581 µM
  relative viability: 0.483
EMC-BAC-2; first compound 0.05 µM
  relative viability: 0.456
EMC-BAC-2; first compound 0.1581 µM
  relative viability: 0.434
EMC-BAC-2; first compound 0.5 µM
  relative viability: 0.452
HARA; first compound 0.005 µM
  relative viability: 0.763
HARA; first compound 0.01581 µM
  relative viability: 0.752
HARA; first compound 0.05 µM
  relative viability: 0.579
HARA; first compound 0.1581 µM
  relative viability: 0.789
HARA; first compound 0.5 µM
  relative viability: 0.875
HOP-62; first compound 0.005 µM
  relative viability: 0.211
HOP-62; first compound 0.01581 µM
  relative viability: 0.434
HOP-62; first compound 0.05 µM
  relative viability: 0.507
HOP-62; first compound 0.1581 µM
  relative viability: 0.473
HOP-62; first compound 0.5 µM
  relative viability: 0.432
LK-2; first compound 0.005 µM
  relative viability: 0.797
LK-2; first compound 0.01581 µM
  relative viability: 0.744
LK-2; first compound 0.05 µM
  relative viability: 0.618
LK-2; first compound 0.1581 µM
  relative viability: 0.726
LK-2; first compound 0.5 µM
  relative viability: 0.798
LXF-289; first compound 0.005 µM
  relative viability: 1.01
LXF-289; first compound 0.01581 µM
  relative viability: 1.12
LXF-289; first compound 0.05 µM
  relative viability: 0.88
LXF-289; first compound 0.1581 µM
  relative viability: 0.888
LXF-289; first compound 0.5 µM
  relative viability: 1.08
NCI-H1792; first compound 0.005 µM
  relative viability: 0.408
NCI-H1792; first compound 0.01581 µM
  relative viability: 0.662
NCI-H1792; first compound 0.1581 µM
  relative viability: 0.386
NCI-H1792; first compound 0.5 µM
  relative viability: 0.326
NCI-H1793; first compound 0.005 µM
  relative viability: 0.903
NCI-H1793; first compound 0.01581 µM
  relative viability: 1.05
NCI-H1793; first compound 0.1581 µM
  relative viability: 0.885
NCI-H1793; first compound 0.5 µM
  relative viability: 0.684
NCI-H1944; first compound 0.005 µM
  relative viability: 0.383
NCI-H1944; first compound 0.01581 µM
  relative viability: 0.403
NCI-H1944; first compound 0.1581 µM
  relative viability: 0.412
NCI-H1944; first compound 0.5 µM
  relative viability: 0.401
NCI-H1993; first compound 0.005 µM
  relative viability: 1.09
NCI-H1993; first compound 0.01581 µM
  relative viability: 1.32
NCI-H1993; first compound 0.05 µM
  relative viability: 0.936
NCI-H1993; first compound 0.1581 µM
  relative viability: 0.984
NCI-H1993; first compound 0.5 µM
  relative viability: 1.02
NCI-H2009; first compound 0.005 µM
  relative viability: 0.698
NCI-H2009; first compound 0.01581 µM
  relative viability: 0.692
NCI-H2009; first compound 0.05 µM
  relative viability: 0.691
NCI-H2009; first compound 0.1581 µM
  relative viability: 0.6
NCI-H2009; first compound 0.5 µM
  relative viability: 0.689
NCI-H2170; first compound 0.005 µM
  relative viability: 0.574
NCI-H2170; first compound 0.01581 µM
  relative viability: 0.62
NCI-H2170; first compound 0.05 µM
  relative viability: 0.53
NCI-H2170; first compound 0.1581 µM
  relative viability: 0.58
NCI-H2170; first compound 0.5 µM
  relative viability: 0.56
NCI-H2228; first compound 0.005 µM
  relative viability: 0.941
NCI-H2228; first compound 0.01581 µM
  relative viability: 0.754
NCI-H2228; first compound 0.1581 µM
  relative viability: 0.758
NCI-H2228; first compound 0.5 µM
  relative viability: 0.638
NCI-H3122; first compound 0.005 µM
  relative viability: 0.605
NCI-H3122; first compound 0.01581 µM
  relative viability: 0.577
NCI-H3122; first compound 0.05 µM
  relative viability: 0.576
NCI-H3122; first compound 0.1581 µM
  relative viability: 0.655
NCI-H3122; first compound 0.5 µM
  relative viability: 0.597
NCI-H596; first compound 0.005 µM
  relative viability: 0.663
NCI-H596; first compound 0.01581 µM
  relative viability: 0.758
NCI-H596; first compound 0.05 µM
  relative viability: 0.533
NCI-H596; first compound 0.1581 µM
  relative viability: 0.598
NCI-H596; first compound 0.5 µM
  relative viability: 0.626
NCI-H727; first compound 0.005 µM
  relative viability: 0.774
NCI-H727; first compound 0.01581 µM
  relative viability: 0.769
NCI-H727; first compound 0.05 µM
  relative viability: 0.738
NCI-H727; first compound 0.1581 µM
  relative viability: 0.559
NCI-H727; first compound 0.5 µM
  relative viability: 0.721
PC-3 [JPC-3]; first compound 0.005 µM
  relative viability: 1.1
PC-3 [JPC-3]; first compound 0.01581 µM
  relative viability: 1.14
PC-3 [JPC-3]; first compound 0.05 µM
  relative viability: 1.22
PC-3 [JPC-3]; first compound 0.1581 µM
  relative viability: 1.07
PC-3 [JPC-3]; first compound 0.5 µM
  relative viability: 0.871
SK-LU-1; first compound 0.005 µM
  relative viability: 0.613
SK-LU-1; first compound 0.01581 µM
  relative viability: 0.474
SK-LU-1; first compound 0.05 µM
  relative viability: 0.329
SK-LU-1; first compound 0.1581 µM
  relative viability: 0.424
SK-LU-1; first compound 0.5 µM
  relative viability: 0.338
SK-MES-1; first compound 0.005 µM
  relative viability: 0.648
SK-MES-1; first compound 0.01581 µM
  relative viability: 0.677
SK-MES-1; first compound 0.05 µM
  relative viability: 0.775
SK-MES-1; first compound 0.1581 µM
  relative viability: 0.636
SK-MES-1; first compound 0.5 µM
  relative viability: 0.814
SW 1573; first compound 0.005 µM
  relative viability: 0.486
SW 1573; first compound 0.01581 µM
  relative viability: 0.528
SW 1573; first compound 0.05 µM
  relative viability: 0.471
SW 1573; first compound 0.1581 µM
  relative viability: 0.431
SW 1573; first compound 0.5 µM
  relative viability: 0.367
SW 900; first compound 0.005 µM
  relative viability: 0.936
SW 900; first compound 0.01581 µM
  relative viability: 1.01
SW 900; first compound 0.1581 µM
  relative viability: 0.947
SW 900; first compound 0.5 µM
  relative viability: 0.841
